In ChEMBL document CHEMBL1122548, “1-Aryl-3,3-dimethyltriazenes: potential central nervous system active analogues of 5-(3,3-dimethyl-1-triazeno)imidazole-4-carboxamide (DTIC)” (J Med Chem, 1984):

How the values were obtained:
[1] = test system: Mus musculus; experiment: Maximum increase in life span was measured in B6d2F1 mice after implanting murine leukemia L1210 cells(ip, 10e5 cells) at an intraperitoneal optimal dose of 108 mg/ (kg day)(qd 1-9); assay type: functional
[2] = test system: Mus musculus; experiment: Maximum increase in life span was measured in B6d2F1 mice after implanting murine leukemia L1210 cells(ic, 10e4 cells) at an intracerebral optimal dose of 160 mg/ (kg day)(qd 1-9); assay type: functional
[3] = Partition coefficient (logP); assay type: physicochemical; conditions: octanol/water
[4] = test system: Mus musculus; experiment: Maximum increase in life span was measured in B6d2F1 mice after implanting murine leukemia L1210 cells(ic, 10e4 cells) at an intracerebral optimal dose of 40 mg/ (kg day)(qd 1-9); assay type: functional
[5] = test system: Mus musculus; experiment: Percent increase in life span was measured in B6C3F1 mice after implanting murine Ependymoblastoma cells(ic) at an intraperitoneal optimal dose of 64 mg/ (kg injection)
[6] = test system: Mus musculus; experiment: Maximum increase in life span was measured in B6d2F1 mice after implanting murine leukemia L1210 cells(ip, 10e5 cells) at an intraperitoneal optimal dose of 39 mg/ (kg day)(qd 1-9); assay type: functional
[7] = test system: Mus musculus; experiment: Maximum increase in life span was measured in B6d2F1 mice after implanting murine leukemia L1210 cells(ic, 10e4 cells) at an intracerebral optimal dose of 40 mg/(kg day)(qd 1-9); assay type: functional
[8] = test system: Mus musculus; experiment: Maximum increase in life span was measured in B6d2F1 mice after implanting murine leukemia L1210 cells(ip, 10e5 cells) at an intraperitoneal optimal dose of 65 mg/(kg day)(qd 1-9); assay type: functional
[9] = test system: Mus musculus; experiment: Maximum increase in life span was measured in B6d2F1 mice after implanting murine leukemia L1210 cells(ip, 10e5 cells) at an intraperitoneal optimal dose of 300 mg/ (kg day)(qd 1-9); assay type: functional
[10] = test system: Mus musculus; experiment: Maximum increase in life span was measured in B6d2F1 mice after implanting murine leukemia L1210 cells(ic, 10e4 cells) at an intracerebral optimal dose of 80 mg/ (kg day)(qd 1-9); assay type: functional
[11] = test system: Mus musculus; experiment: Percent increase in life span was measured in B6d2F1 mice after implanting B16 melanoma cells(ic) at an intracerebral (ic) optimal dose of 40-80 mg/ (kg day); assay type: functional
[12] = test system: Mus musculus; experiment: Percent increase in life span was measured in B6C3F1 mice after implanting murine Ependymoblastoma cells(ic) at an intraperitoneal optimal dose of 32 mg/ (kg injection)
[13] = test system: Mus musculus; experiment: Maximum increase in life span was measured in B6d2F1 mice after implanting murine leukemia L1210 cells(ip, 10e5 cells) at an intraperitoneal optimal dose of 65 mg/ (kg day)(qd 1-9); assay type: functional
[14] = test system: Mus musculus; experiment: Percent increase in life span was measured in B6C3F1 mice after implanting murine Ependymoblastoma cells(ic) at an intraperitoneal optimal dose of 8 mg/ (kg injection)
[15] = test system: Mus musculus; experiment: Maximum increase in life span was measured in B6d2F1 mice after implanting murine leukemia L1210 cells(ic, 10e4 cells) at an intracerebral optimal dose of 20 mg/ (kg day)(qd 1-9); assay type: functional
[16] = test system: Mus musculus; experiment: Percent increase in life span was measured in B6C3F1 mice after implanting murine Ependymoblastoma cells(ic) at an intraperitoneal optimal dose of 128 mg/ (kg injection)
[17] = test system: Mus musculus; experiment: Percent increase in life span was measured in B6d2F1 mice after implanting B16 melanoma cells(ic) at an intracerebral (ic) optimal dose of 10-40 mg/ (kg day); assay type: functional

CN(C)/N=N/c1c(Cl)cccc1Cl
ILS [1]: 39% | ILS [2]: 12% | logP ([3]; read-out: logP): 4.01

CC(=O)c1ccccc1/N=N/N(C)C
ILS [1]: 0% | ILS [4]: 9% | logP ([3]; read-out: logP): 2.19

CN(C)/N=N/c1cccc(Cl)c1
ILS [1]: 11% | ILS [4]: 7% | logP ([3]; read-out: logP): 3.3

COC(=O)c1ccc(/N=N/N(C)C)cc1
ILS [5]: 64% | ILS [6]: 40% | ILS [2]: 7% | logP ([3]; read-out: logP): 2.77

CN(C)/N=N/c1cccc(C(N)=O)c1
ILS [6]: 50% | ILS [4]: 22% | logP ([3]; read-out: logP): 1.21

COC(=O)c1ccccc1/N=N/N(C)C
ILS [7]: 14% | logP ([3]; read-out: logP): 2.72 | ILS [8]: 11%

CN(C)/N=N/c1ccc(Br)cc1
ILS [9]: 0% | logP ([3]; read-out: logP): 3.45

CN(C)/N=N/c1ccc(Cl)cc1
ILS [10]: 2% | ILS [1]: 26% | logP ([3]; read-out: logP): 3.3

CN(C)/N=N/c1ccc(C(N)=O)cc1
ILS [11]: 30% | ILS [6]: 40% | ILS [2]: 45% | ILS [12]: 62% | logP [3]: 1.2

CN(C)/N=N/c1ccccc1C(N)=O
ILS [13]: 10% | ILS [4]: 10%

CN(C)/N=N/c1ccccc1C(=O)O
ILS [13]: 12% | ILS [14]: 2% | ILS [15]: 6% | logP ([3]; read-out: logP): -2.66

CC(=O)c1ccc(/N=N/N(C)C)cc1
ILS [1]: 16% | ILS [15]: 5% | logP ([3]; read-out: logP): 2.19

CN(C)/N=N/c1ccccc1Cl
ILS [13]: 21% | ILS [10]: 5% | ILS [16]: 38%

CN(C)/N=N/c1ccc(I)cc1
ILS [9]: 5% | logP ([3]; read-out: logP): 3.71

CN(C)/N=N/c1c(Br)cccc1Br
ILS [1]: 44% | ILS [2]: 14% | logP ([3]; read-out: logP): 4.31

CN(C)/N=N/c1ccc(C(=O)O)cc1
ILS [10]: 25% | ILS [6]: 41% | ILS [12]: 18% | logP [3]: -1.77

CC(=O)c1cccc(/N=N/N(C)C)c1
ILS [13]: 55% | ILS [4]: 6% | logP ([3]; read-out: logP): 2.19

CN(C)/N=N/c1[nH]cnc1C(N)=O [DACARBAZINE]
ILS [5]: 60% | ILS [17]: 8% | ILS [1]: 50% | ILS [2]: 18% | logP [3]: -0.24

CN(C)/N=N/c1ccc(F)cc1
ILS [9]: 16% | logP ([3]; read-out: logP): 2.73

COC(=O)c1cccc(/N=N/N(C)C)c1
ILS [6]: 30% | ILS [16]: 62% | ILS [2]: 10% | logP ([3]; read-out: logP): 2.77
